# Data as given in article PMC11775380, “Discovery of Novel Nav1.7-Selective Inhibitors with the 1H-Indole-3-Propionamide Scaffold for Effective Pain Relief” (Research, 2025).
# Legend:
# [1] = test system: acetic acid writhing pain model in mice; test: Acetic acid-induced writhing test; assay type: in vivo, ICR mice; conditions: 15 min before acetic acid, writhing counted 30 min
# Excerpt: Acute pain was a common type of pain with considerable value for drug development. Here, 2 acute inflammatory pain models were used to verify the acute analgesic effect of WN2-R. One such model, the acetic acid writhing pain model in mice, is a well-established acute visceral pain model. It simulates clinically relevant intestinal discomfort by stimulating the abdominal mucosa and intestine with acetic acid and has been extensively used to screen analgesic or anti-inflammatory drugs. Based on this model, we evaluated the acute analgesic effect of WN2-R using 2 drug delivery methods, i.g. and […] (n = 6). […] Furthermore, the analgesic effect of WN2-R at the same dose was similar to that of the positive control drug PF-05089771, with no significant difference between these two. […] Three male and 3 female ICR mice were used in the acetic acid-induced writhing test. Mice were preadministered with either WN2-R (5 mg/kg i.g., 1 mg/kg i.m.), PF05089771 (5 mg/kg i.g., 1 mg/kg i.m.), or saline 15 min before i.p. injection of 0.2 ml of acetic acid (0.8%, V/V). Each mouse was then placed in an individual open polyvinyl cage (30 cm × 40 cm × 30 cm). The number of writhing responses, characterized by a wave of abdominal muscle contraction followed by hind limb extension, was recorded for 30 min after acetic acid injection. These responses served as an indication of nociceptive intensity. The percentage of inhibition was calculated using the following equation: Inhibition% = (Writhing Numbervehicle – Writhing Numberdrug)/Writhing Numbervehicle × 100% [15, 47].
# hNav1.8 = target: T1, hNav1.8 (Homo sapiens, UniProt Q9Y5Y9); test: Subtype selectivity, patch clamp (ND7/23 cells); assay type: cell-based; conditions: 1 μM
# T1 construct: expressed in transfected cells; host or cells: ND7/23
# Description: VGSC inhibitors required credible subtype selectivity to void side effects caused by binding to nontarget subtypes. At a concentration of 1 μM, the inhibitory rates of WN2-R on hNav1.2, hNav1.3, hNav1.4, hNav1.5, mNav1.6, and hNav1.8 were determined (n = 3 to 6, Fig. 7A). […] To further evaluate the drug safety profile, high-dose acute toxicity experiments were conducted. Mice were administered a high dose of 30 mg/kg WN2-R through i.p. administration. The rotarod test, forced-swim test, and open field test were used to explore the effect of high-dose WN2-R on the motor ability of mice (n = 4). The rotarod test evaluated the drug's effect on motor coordination, the forced-swim test examined its impact on the overall motor system, and the open field test assessed the drug's influence on the motor and nervous systems. […]
# Whole-cell patch-clamp recordings were conducted at 25 ± 2 °C, utilizing an EPC 10USB patch-clamp amplifier (HEKA Elektronik, Lambrecht, Germany). […] IC50 values were determined in HEK293T or ND7/23 cell lines by voltage clamping at −80 mV, followed by stepping to the V1/2 of inactivation for 8 s to facilitate compound binding.
# T1 sequence (Q9Y5Y9 whole entry): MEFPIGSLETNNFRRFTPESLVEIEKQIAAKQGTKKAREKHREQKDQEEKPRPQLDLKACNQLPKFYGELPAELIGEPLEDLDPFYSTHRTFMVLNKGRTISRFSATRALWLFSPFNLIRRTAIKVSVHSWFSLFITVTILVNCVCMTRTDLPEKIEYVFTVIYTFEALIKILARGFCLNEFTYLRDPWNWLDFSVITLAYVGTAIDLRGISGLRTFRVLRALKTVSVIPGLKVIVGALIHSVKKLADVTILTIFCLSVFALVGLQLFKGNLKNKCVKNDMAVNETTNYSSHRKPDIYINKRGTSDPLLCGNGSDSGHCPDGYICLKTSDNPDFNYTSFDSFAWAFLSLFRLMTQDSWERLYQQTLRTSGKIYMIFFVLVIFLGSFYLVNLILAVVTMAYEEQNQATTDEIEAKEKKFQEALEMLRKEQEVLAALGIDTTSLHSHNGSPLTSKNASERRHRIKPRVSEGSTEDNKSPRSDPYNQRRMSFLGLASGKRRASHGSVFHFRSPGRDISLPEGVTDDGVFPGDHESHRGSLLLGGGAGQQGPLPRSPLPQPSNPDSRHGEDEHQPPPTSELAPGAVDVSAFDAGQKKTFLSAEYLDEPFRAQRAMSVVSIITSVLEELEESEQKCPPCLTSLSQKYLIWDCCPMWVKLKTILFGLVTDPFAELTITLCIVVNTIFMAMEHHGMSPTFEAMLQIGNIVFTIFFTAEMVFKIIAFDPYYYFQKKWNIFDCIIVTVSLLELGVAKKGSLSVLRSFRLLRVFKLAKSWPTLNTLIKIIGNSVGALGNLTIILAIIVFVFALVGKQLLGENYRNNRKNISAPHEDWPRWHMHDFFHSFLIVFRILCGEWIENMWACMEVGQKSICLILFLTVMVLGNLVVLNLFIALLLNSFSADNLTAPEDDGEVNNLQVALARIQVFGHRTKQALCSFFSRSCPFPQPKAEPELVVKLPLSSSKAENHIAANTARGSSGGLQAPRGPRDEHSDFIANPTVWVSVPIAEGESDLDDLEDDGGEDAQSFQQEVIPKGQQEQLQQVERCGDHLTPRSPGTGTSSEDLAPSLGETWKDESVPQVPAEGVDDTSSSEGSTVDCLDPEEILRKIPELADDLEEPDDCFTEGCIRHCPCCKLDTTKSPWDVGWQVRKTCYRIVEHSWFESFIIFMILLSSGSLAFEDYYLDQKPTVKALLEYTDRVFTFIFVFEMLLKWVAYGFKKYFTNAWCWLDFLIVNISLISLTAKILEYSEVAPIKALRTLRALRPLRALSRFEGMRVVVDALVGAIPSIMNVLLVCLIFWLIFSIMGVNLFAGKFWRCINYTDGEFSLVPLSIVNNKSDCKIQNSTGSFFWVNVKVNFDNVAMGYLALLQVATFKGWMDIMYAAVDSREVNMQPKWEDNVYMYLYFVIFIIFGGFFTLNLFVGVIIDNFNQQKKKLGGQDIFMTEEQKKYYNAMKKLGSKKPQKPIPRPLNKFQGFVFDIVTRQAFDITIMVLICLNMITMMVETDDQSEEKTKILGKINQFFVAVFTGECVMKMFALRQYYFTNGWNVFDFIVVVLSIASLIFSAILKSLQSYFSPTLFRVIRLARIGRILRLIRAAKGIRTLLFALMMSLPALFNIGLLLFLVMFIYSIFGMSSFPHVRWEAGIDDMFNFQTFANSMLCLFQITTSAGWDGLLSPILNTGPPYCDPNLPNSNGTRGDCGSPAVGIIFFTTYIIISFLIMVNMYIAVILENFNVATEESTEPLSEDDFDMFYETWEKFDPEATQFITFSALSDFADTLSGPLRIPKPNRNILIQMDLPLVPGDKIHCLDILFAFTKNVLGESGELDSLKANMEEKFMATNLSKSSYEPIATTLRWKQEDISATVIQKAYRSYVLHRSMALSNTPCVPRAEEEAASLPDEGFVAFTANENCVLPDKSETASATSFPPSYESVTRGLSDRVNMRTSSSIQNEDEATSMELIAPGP
structure (smiles),measurement,setting,value
Cc1ccc(Cn2cc([C@H](CC(=O)NCCN(C)C)c3ccc(F)cc3)c3ccccc32)cc1 [WN2-R],Analgesic rate (normalized number of writhing),"[1]; i.g., 5 mg/kg",30.0%
same,Analgesic rate (normalized number of writhing),[1]; i.p. (method: 1 mg/kg i.m.),34.1%
same,Inhibitory rate on hNav1.8,hNav1.8,much lower than that on Nav1.7
